Experimental data from ChEMBL document CHEMBL4196012 (Eur J Med Chem, 2018).
In brackets after ≈: the same amount, converted by molar mass.

Experiments:
[1] = Partition coefficient, log P of the compound; type: physicochemical; details: octanol/water
[2] = tested on: Yersinia pseudotuberculosis; assay: Antibacterial activity against Yersinia pseudotuberculosis ATCC 911 after 18 to 24 hrs by double microdilution method; type: functional
[3] = tested on: Enterococcus faecalis; assay: Antibacterial activity against Enterococcus faecalis ATCC 29212 after 18 to 24 hrs by double microdilution method; type: functional
[4] = tested on: Staphylococcus aureus; assay: Antibacterial activity against Staphylococcus aureus ATCC 25923 after 18 to 24 hrs by double microdilution method; type: functional
[5] = tested on: Bacillus cereus; assay: Antibacterial activity against Bacillus cereus 709 Roma after 18 to 24 hrs by double microdilution method; type: functional
[6] = tested on: Mycolicibacterium smegmatis; assay: Antibacterial activity against Mycobacterium smegmatis ATCC 607 after 48 to 72 hrs by double microdilution method; type: functional
[7] = tested on: Escherichia coli; assay: Antibacterial activity against Escherichia coli ATCC 35218 after 18 to 24 hrs by double microdilution method; type: functional
[8] = tested on: Pseudomonas aeruginosa; assay: Antibacterial activity against Pseudomonas aeruginosa ATCC 10145 after 18 to 24 hrs by double microdilution method; type: functional
[9] = tested on: Bacillus subtilis; assay: Antibacterial activity against Bacillus subtilis NCDC 71 after overnight incubation by single disc method; type: functional
[10] = tested on: Escherichia coli; assay: Antibacterial activity against Escherichia coli NCDC 134 after overnight incubation by single disc method; type: functional
[11] = tested on: Pseudomonas aeruginosa; assay: Antibacterial activity against Pseudomonas aeruginosa NCDC105 after overnight incubation by single disc method; type: functional
[12] = tested on: Paenibacillus polymyxa; assay: Antibacterial activity against Paenibacillus polymyxa NCDC 64 after overnight incubation by single disc method; type: functional
[13] = tested on: Staphylococcus aureus; assay: Antibacterial activity against Staphylococcus aureus NCDC 110 after overnight incubation by single disc method; type: functional
[14] = tested on: Escherichia coli; assay: Antibacterial activity against Escherichia coli ATCC […] by CLSI agar dilution method; type: functional
[15] = tested on: Staphylococcus epidermidis; assay: Antibacterial activity against Staphylococcus epidermidis ATCC 12228 by CLSI agar dilution method; type: functional
[16] = tested on: Staphylococcus epidermidis; assay: Antibacterial activity against methicillin-sensitive Staphylococcus epidermidis by CLSI agar dilution method; type: functional
[17] = tested on: Staphylococcus aureus; assay: Antibacterial activity against Staphylococcus aureus ATCC 29213 by CLSI agar dilution method; type: functional
[18] = tested on: Staphylococcus aureus; assay: Antibacterial activity against methicillin-sensitive Staphylococcus aureus by CLSI agar dilution method; type: functional
[19] = tested on: Klebsiella pneumoniae; assay: Antibacterial activity against Klebsiella pneumoniae ATCC […] by CLSI agar dilution method; type: functional
[20] = tested on: Escherichia coli; assay: Potency index, ratio of ampicillin MIC to compound MIC for antibacterial activity against Escherichia coli ATCC 25922; type: functional
[21] = tested on: Yersinia pseudotuberculosis; assay: Potency index, ratio of ampicillin MIC to compound MIC for antibacterial activity against Yersinia pseudotuberculosis ATCC 911; type: functional
[22] = tested on: Pseudomonas aeruginosa; assay: Potency index, ratio of ampicillin MIC to compound MIC for antibacterial activity against Pseudomonas aeruginosa ATCC 43288; type: functional
[23] = tested on: Enterococcus faecalis; assay: Potency index, ratio of ampicillin MIC to compound MIC for antibacterial activity against Enterococcus faecalis ATCC 29212; type: functional
[24] = tested on: Staphylococcus aureus; assay: Potency index, ratio of ampicillin MIC to compound MIC for antibacterial activity against Staphylococcus aureus ATCC 25923; type: functional
[25] = tested on: Bacillus cereus; assay: Potency index, ratio of ampicillin MIC to compound MIC for antibacterial activity against Bacillus cereus 709 Roma; type: functional
[26] = tested on: Mycolicibacterium smegmatis; assay: Potency index, ratio of ampicillin MIC to compound MIC for antibacterial activity against Mycobacterium smegmatis ATCC 607; type: functional
[27] = tested on: Candida albicans; assay: Potency index, ratio of ampicillin MIC to compound MIC for antifungal activity against Candida albicans ATCC 60193; type: functional
[28] = tested on: Saccharomyces cerevisiae; assay: Potency index, ratio of ampicillin MIC to compound MIC for antifungal activity against Saccharomyces cerevisiae RSKK 251; type: functional
[29] = tested on: Escherichia coli; assay: Antibacterial activity against Escherichia coli ATCC 8739 by agar dilution method; type: functional
[30] = tested on: Klebsiella pneumoniae; assay: Antibacterial activity against Klebsiella pneumoniae ATCC 10031 by agar dilution method; type: functional
[31] = tested on: Pseudomonas aeruginosa; assay: Antibacterial activity against Pseudomonas aeruginosa ATCC 9027 by agar dilution method; type: functional
[32] = tested on: Bacillus subtilis; assay: Antibacterial activity against Bacillus subtilis PTCC 1023 by agar dilution method; type: functional
[33] = tested on: Staphylococcus aureus; assay: Antibacterial activity against Staphylococcus aureus ATCC 6538P by agar dilution method; type: functional
[34] = tested on: Staphylococcus epidermidis; assay: Antibacterial activity against Staphylococcus epidermidis ATCC 12228 by agar dilution method; type: functional
[35] = tested on: Staphylococcus aureus; assay: Antibacterial activity against Staphylococcus aureus ATCC 29213 after 16 to 20 hrs by NCCLS microdilution method; type: functional
[36] = tested on: Staphylococcus aureus; assay: Antibacterial activity against quinolone-resistant Staphylococcus aureus after 16 to 20 hrs by NCCLS microdilution method; type: functional
[37] = tested on: Staphylococcus aureus; assay: Antibacterial activity against linezolid-resistant Staphylococcus aureus after 16 to 20 hrs by NCCLS microdilution method; type: functional
[38] = tested on: Enterococcus faecalis; assay: Antibacterial activity against Enterococcus faecalis ATCC 29212 after 16 to 20 hrs by NCCLS microdilution method; type: functional
[39] = tested on: Enterococcus faecalis; assay: Antibacterial activity against linezolid-resistant Enterococcus faecalis after 16 to 20 hrs by NCCLS microdilution method; type: functional
[40] = tested on: Enterococcus faecium; assay: Antibacterial activity against vancomycin and quinolone-resistant Enterococcus faecium after 16 to 20 hrs by NCCLS microdilution method; type: functional
[41] = tested on: Streptococcus pneumoniae; assay: Antibacterial activity against Streptococcus pneumoniae ATCC 49619 after 16 to 20 hrs by NCCLS microdilution method; type: functional
[42] = tested on: Streptococcus pneumoniae; assay: Antibacterial activity against quinolone-resistant Streptococcus pneumoniae after 16 to 20 hrs by NCCLS microdilution method; type: functional
[43] = tested on: Haemophilus influenzae; assay: Antibacterial activity against Haemophilus influenzae 11 after 16 to 20 hrs by NCCLS microdilution method; type: functional
[44] = tested on: Moraxella catarrhalis; assay: Antibacterial activity against Moraxella catarrhalis ATCC 8176 after 16 to 20 hrs by NCCLS microdilution method; type: functional
[45] = tested on: Escherichia coli; assay: Antibacterial activity against Escherichia coli ATCC 25922 after 16 to 20 hrs by NCCLS microdilution method; type: functional

SMILES: CCCOC(=O)c1cn(C2CC2)c2cc(N3CCNCC3)c(F)cc2c1=O
- logP [1]: 0.437

SMILES: COc1ccccc1N1CCN(Cc2nn(CN3CCN(c4cc5c(cc4F)c(=O)c(C(=O)O)cn5C4CC4)CC3)c(=S)n2-c2ccccc2)CC1
- MIC [2]: < 0.24 µg/mL
- MIC [3]: < 0.24 µg/mL
- MIC [4]: < 0.24 µg/mL
- MIC [5]: < 0.24 µg/mL
- MIC [6]: < 0.24 µg/mL
- MIC [7]: < 0.24 µg/mL
- MIC [8]: < 0.24 µg/mL

SMILES: CCn1c(CNc2ccc(N3CCN(c4ccc(F)cc4)CC3)c(F)c2)nn(CN2CCN(c3cc4c(cc3F)c(=O)c(C(=O)O)cn4C3CC3)CC2)c1=S
- MIC [2]: < 0.24 µg/mL
- MIC [3]: < 0.24 µg/mL
- MIC [4]: < 0.24 µg/mL
- MIC [5]: < 0.24 µg/mL
- MIC [6]: < 0.24 µg/mL
- MIC [7]: < 0.24 µg/mL
- MIC [8]: < 0.24 µg/mL

SMILES: O=C(CN1CCN(c2cc3c(cc2F)c(=O)c(C(=O)O)cn3C2CC2)CC1)Nc1nc2ccc(Cl)cc2s1
- MIC [9]: 3 to 15 µg/mL (≈ 5.4 to 27 µM)
- MIC [10]: 3 to 15 µg/mL (≈ 5.4 to 27 µM)
- MIC [11]: 3 to 15 µg/mL (≈ 5.4 to 27 µM)
- MIC [12]: 3 to 15 µg/mL (≈ 5.4 to 27 µM)
- MIC [13]: 3 to 15 µg/mL (≈ 5.4 to 27 µM)

SMILES: O=C(O)c1cn(C2CC2)c2cc(N3CCN(CC(O)Cn4cc([N+](=O)[O-])nc4Cl)CC3)c(F)cc2c1=O (configuration not stated)
- MIC [14]: 2 to 32 µg/mL (≈ 3.74 to 59.8 µM)
- MIC [15]: 2 to 32 µg/mL (≈ 3.74 to 59.8 µM)
- MIC [16]: 2 to 32 µg/mL (≈ 3.74 to 59.8 µM)
- MIC [17]: 2 to 32 µg/mL (≈ 3.74 to 59.8 µM)
- MIC [18]: 2 to 32 µg/mL (≈ 3.74 to 59.8 µM)
- MIC [19]: 2 to 32 µg/mL (≈ 3.74 to 59.8 µM)

SMILES: COc1c(N2CCNC(C)C2)c(F)cc2c(=O)c(C(=O)O)cn(C3CC3)c12 (configuration not stated) [GATIFLOXACIN]
- MIC [14]: 0.06 to 16 µg/mL (≈ 0.16 to 42.6 µM)
- MIC [15]: 0.06 to 16 µg/mL (≈ 0.16 to 42.6 µM)
- MIC [16]: 0.06 to 16 µg/mL (≈ 0.16 to 42.6 µM)
- MIC [17]: 0.06 to 16 µg/mL (≈ 0.16 to 42.6 µM)
- MIC [18]: 0.06 to 16 µg/mL (≈ 0.16 to 42.6 µM)
- MIC [19]: 0.06 to 16 µg/mL (≈ 0.16 to 42.6 µM)
- MIC [9]: 5 to 100 µg/mL (≈ 13.3 to 266 µM)
- MIC [10]: 5 to 100 µg/mL (≈ 13.3 to 266 µM)
- MIC [11]: 5 to 100 µg/mL (≈ 13.3 to 266 µM)
- MIC [12]: 5 to 100 µg/mL (≈ 13.3 to 266 µM)
- MIC [13]: 5 to 100 µg/mL (≈ 13.3 to 266 µM)

SMILES: COc1ccccc1N1CCN(Cc2nn(CN3CCN(c4cc5c(cc4F)c(=O)c(C(=O)O)cn5C4CC4)CC3)c(=O)n2Cc2ccccc2)CC1
- MIC [2]: < 0.24 µg/mL
- MIC [3]: < 0.24 µg/mL
- MIC [4]: < 0.24 µg/mL
- MIC [5]: < 0.24 µg/mL
- MIC [6]: < 0.24 µg/mL
- MIC [7]: < 0.24 µg/mL
- MIC [8]: < 0.24 µg/mL

SMILES: O=C(O)c1cn(C2CC2)c2cc(N3CCN(Cn4nc(CN5CCSCC5)oc4=S)CC3)c(F)cc2c1=O
- Ratio [20]: >41
- Ratio [21]: >41
- Ratio [22]: >41
- Ratio [23]: >41
- Ratio [24]: >41
- Ratio [25]: >41
- Ratio [26]: >41
- Ratio [27]: >41
- Ratio [28]: >41

SMILES: O=C(O)c1cn(C2CC2)c2cc(N3CCN(c4nnc(-c5ccc([N+](=O)[O-])s5)s4)CC3)c(F)cc2c1=O
- MIC [29]: 2 to 64 µg/mL (≈ 3.69 to 118 µM)
- MIC [30]: 2 to 64 µg/mL (≈ 3.69 to 118 µM)
- MIC [31]: 2 to 64 µg/mL (≈ 3.69 to 118 µM)
- MIC [32]: 0.008 to 0.015 µg/mL (≈ 0.0147 to 0.0276 µM)
- MIC [33]: 0.008 to 0.015 µg/mL (≈ 0.0147 to 0.0276 µM)
- MIC [34]: 0.008 to 0.015 µg/mL (≈ 0.0147 to 0.0276 µM)

SMILES: Cn1c([N+](=O)[O-])cnc1-c1nnc(N2CCN(c3cc4c(cc3F)c(=O)c(C(=O)O)cn4C3CC3)CC2)s1
- MIC [29]: 2 to 64 µg/mL (≈ 3.7 to 118 µM)
- MIC [30]: 2 to 64 µg/mL (≈ 3.7 to 118 µM)
- MIC [31]: 2 to 64 µg/mL (≈ 3.7 to 118 µM)
- MIC [32]: 0.008 to 0.015 µg/mL (≈ 0.0148 to 0.0278 µM)
- MIC [33]: 0.008 to 0.015 µg/mL (≈ 0.0148 to 0.0278 µM)
- MIC [34]: 0.008 to 0.015 µg/mL (≈ 0.0148 to 0.0278 µM)

SMILES: COC(=O)c1cn(C2CC2)c2cc(N3CCNCC3)c(F)cc2c1=O
- logP [1]: -0.441

SMILES: CC(=O)NC[C@H]1CN(c2ccc(N3CCN(c4cc5c(cc4F)c(=O)c(C(=O)O)cn5C4CC4)CC3)c(F)c2)C(=O)O1
- MIC [35]: 0.125 to 4 µg/mL (≈ 0.215 to 6.88 µM)
- MIC [36]: 0.25 to 0.5 µg/mL (≈ 0.43 to 0.86 µM)
- MIC [37]: 0.125 to 4 µg/mL (≈ 0.215 to 6.88 µM)
- MIC [38]: 0.125 to 4 µg/mL (≈ 0.215 to 6.88 µM)
- MIC [39]: 0.125 to 4 µg/mL (≈ 0.215 to 6.88 µM)
- MIC [40]: 0.25 to 0.5 µg/mL (≈ 0.43 to 0.86 µM)
- MIC [41]: 0.125 to 4 µg/mL (≈ 0.215 to 6.88 µM)
- MIC [42]: 0.25 to 0.5 µg/mL (≈ 0.43 to 0.86 µM)
- MIC [43]: 0.125 to 4 µg/mL (≈ 0.215 to 6.88 µM)
- MIC [44]: 0.125 to 4 µg/mL (≈ 0.215 to 6.88 µM)
- MIC [45]: 0.125 to 4 µg/mL (≈ 0.215 to 6.88 µM)
